Laboratory results taken from PubChem BioAssay (NCI).
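96-well plates; 48 h exposure; 5 concentrations. Endpoints by linear interpolation between flanking doses. Not reached: highest tested concentration assigned. GI50 marks 50% less growth. The concentration for full growth arrest is given as TGI.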

How the values were obtained:
Assay in all cases: NCI anticancer screen, dose series, 48 h
CCRF-CEM leukemia = test system: CCRF-CEM leukemia
SF-295 CNS = test system: SF-295 CNS
MALME-3M melanoma = test system: MALME-3M melanoma
SF-268 CNS = test system: SF-268 CNS
TK-10 renal = test system: TK-10 renal
SF-539 CNS = test system: SF-539 CNS
A549 NSCLC = test system: A549 NSCLC
MCF7 breast = test system: MCF7 breast
NCI-H460 lung = test system: NCI-H460 lung
HCT-15 colon = test system: HCT-15 colon
MDA-MB-231 breast = test system: MDA-MB-231 breast
BT-549 breast = test system: BT-549 breast
RPMI-8226 leukemia = test system: RPMI-8226 leukemia
HOP-62 NSCLC = test system: HOP-62 NSCLC
U251 CNS = test system: U251 CNS
IGROV1 ovarian = test system: IGROV1 ovarian
A498 renal = test system: A498 renal
OVCAR-3 ovarian = test system: OVCAR-3 ovarian
MDA-MB-435 = test system: MDA-MB-435
T-47D breast = test system: T-47D breast
HL-60(TB) leukemia = test system: HL-60(TB) leukemia
SNB-19 CNS = test system: SNB-19 CNS
HT29 colon = test system: HT29 colon
ACHN renal = test system: ACHN renal
SW-620 colon = test system: SW-620 colon
SN12C renal = test system: SN12C renal
MOLT-4 leukemia = test system: MOLT-4 leukemia
CAKI-1 renal = test system: CAKI-1 renal
HCT-116 colon = test system: HCT-116 colon
MDA-MB-468 breast = test system: MDA-MB-468 breast
UACC-62 melanoma = test system: UACC-62 melanoma
SK-OV-3 ovarian = test system: SK-OV-3 ovarian
COLO 205 colon = test system: COLO 205 colon
OVCAR-5 ovarian = test system: OVCAR-5 ovarian
EKVX NSCLC = test system: EKVX NSCLC
K-562 leukemia = test system: K-562 leukemia
NCI-H522 lung = test system: NCI-H522 lung
NCI-H226 lung = test system: NCI-H226 lung
OVCAR-4 ovarian = test system: OVCAR-4 ovarian
PC-3 prostate = test system: PC-3 prostate
HS 578T breast = test system: HS 578T breast
SK-MEL-2 melanoma = test system: SK-MEL-2 melanoma
KM12 colon = test system: KM12 colon
NCI-H23 lung = test system: NCI-H23 lung
DU-145 prostate = test system: DU-145 prostate
SK-MEL-28 melanoma = test system: SK-MEL-28 melanoma
SR leukemia = test system: SR leukemia
786-0 renal = test system: 786-0 renal
UACC-257 melanoma = test system: UACC-257 melanoma
OVCAR-8 ovarian = test system: OVCAR-8 ovarian
HCC-2998 colon = test system: HCC-2998 colon
UO-31 renal = test system: UO-31 renal
M14 melanoma = test system: M14 melanoma
HOP-92 NSCLC = test system: HOP-92 NSCLC
SK-MEL-5 melanoma = test system: SK-MEL-5 melanoma
LOX IMVI melanoma = test system: LOX IMVI melanoma
RXF 393 renal = test system: RXF 393 renal

Work on `Cn1cc(-c2cc(N)n3nc(-c4c[nH]c5ccc(Cl)cc45)cc3n2)c2cc(Br)cnc21` yielded a GI50 (CCRF-CEM leukemia) of 3.32 µM, a TGI (CCRF-CEM leukemia) of 10.7 µM and a GI50 (SF-295 CNS) of 1.84 µM. It also gave a TGI (SF-295 CNS) of 4.04 µM, a GI50 (MALME-3M melanoma) of 2.18 µM and a TGI (MALME-3M melanoma) of 5.19 µM. For the same compound, the GI50 (SF-268 CNS) was 7.39 µM, the TGI (SF-268 CNS) was 43.9 µM and the GI50 (TK-10 renal) was 2.27 µM. It also gave a TGI (TK-10 renal) of 7.2 µM, a GI50 (SF-539 CNS) of 1.66 µM and a TGI (SF-539 CNS) of 3.22 µM. For the same compound, the GI50 (A549 NSCLC) was 2.13 µM, the TGI (A549 NSCLC) was 6.32 µM and the GI50 (MCF7 breast) was 1.77 µM. For the same compound, the TGI (MCF7 breast) was 3.31 µM, the GI50 (NCI-H460 lung) was 1.92 µM and the TGI (NCI-H460 lung) was 3.81 µM. The GI50 (HCT-15 colon) was 1.61 µM, the TGI (HCT-15 colon) was 3.02 µM and the GI50 (MDA-MB-231 breast) was 1.98 µM. The TGI (MDA-MB-231 breast) was 4.27 µM, the GI50 (BT-549 breast) was 13.8 µM and the TGI (BT-549 breast) was 28.6 µM. It also gave a GI50 (RPMI-8226 leukemia) of 3.88 µM, a TGI (RPMI-8226 leukemia) of 34 µM and a GI50 (HOP-62 NSCLC) of 4.41 µM. For the same compound, the TGI (HOP-62 NSCLC) was 27.6 µM, the GI50 (U251 CNS) was 1.81 µM and the TGI (U251 CNS) was 3.39 µM. For the same compound, the GI50 (IGROV1 ovarian) was 1.94 µM, the TGI (IGROV1 ovarian) was 4.47 µM and the GI50 (A498 renal) was 13.1 µM. For the same compound, the TGI (A498 renal) was 29.4 µM, the GI50 (OVCAR-3 ovarian) was 3.23 µM and the TGI (OVCAR-3 ovarian) was 9.96 µM. It also gave a GI50 (MDA-MB-435) of 2.06 µM, a TGI (MDA-MB-435) of 4.48 µM and a GI50 (T-47D breast) of 2.38 µM. It also gave a TGI (T-47D breast) of 7.3 µM, a GI50 (HL-60(TB) leukemia) of 2.06 µM and a TGI (HL-60(TB) leukemia) of 5.15 µM. For the same compound, the GI50 (SNB-19 CNS) was 3.25 µM, the TGI (SNB-19 CNS) was 11.5 µM and the GI50 (HT29 colon) was 1.93 µM. It also gave a TGI (HT29 colon) of 3.84 µM, a GI50 (ACHN renal) of 1.87 µM and a TGI (ACHN renal) of 3.92 µM. For the same compound, the GI50 (SW-620 colon) was 1.82 µM, the TGI (SW-620 colon) was 3.5 µM and the GI50 (SN12C renal) was 10.1 µM. The TGI (SN12C renal) was 26.4 µM, the GI50 (MOLT-4 leukemia) was 1.76 µM and the TGI (MOLT-4 leukemia) was 5.68 µM. For the same compound, the GI50 (CAKI-1 renal) was 3.07 µM, the TGI (CAKI-1 renal) was 16.7 µM and the GI50 (HCT-116 colon) was 2.01 µM. It also gave a TGI (HCT-116 colon) of 4.03 µM, a GI50 (MDA-MB-468 breast) of 1.32 µM and a TGI (MDA-MB-468 breast) of 2.73 µM. It also gave a GI50 (UACC-62 melanoma) of 1.69 µM, a TGI (UACC-62 melanoma) of 3.6 µM and a GI50 (SK-OV-3 ovarian) of 18.6 µM. It also gave a TGI (SK-OV-3 ovarian) of 72.1 µM, a GI50 (COLO 205 colon) of 2.83 µM and a TGI (COLO 205 colon) of 6.04 µM. It also gave a GI50 (OVCAR-5 ovarian) of 2.01 µM, a TGI (OVCAR-5 ovarian) of 6.48 µM and a GI50 (EKVX NSCLC) of 3.04 µM. It also gave a TGI (EKVX NSCLC) of 14.1 µM, a GI50 (K-562 leukemia) of 2.4 µM and a TGI (K-562 leukemia) of 6.27 µM. The GI50 (NCI-H522 lung) was 1.9 µM, the TGI (NCI-H522 lung) was 3.88 µM and the GI50 (NCI-H226 lung) was 2.23 µM. It also gave a TGI (NCI-H226 lung) of 11.5 µM, a GI50 (OVCAR-4 ovarian) of 2.98 µM and a TGI (OVCAR-4 ovarian) of 9.01 µM. The GI50 (PC-3 prostate) was 2.27 µM, the TGI (PC-3 prostate) was 5.79 µM and the GI50 (HS 578T breast) was 12.6 µM. The TGI (HS 578T breast) was 55.5 µM, the GI50 (SK-MEL-2 melanoma) was 2.63 µM and the TGI (SK-MEL-2 melanoma) was 7.51 µM. For the same compound, the GI50 (KM12 colon) was 2.17 µM, the TGI (KM12 colon) was 4.87 µM and the GI50 (NCI-H23 lung) was 2.63 µM. It also gave a TGI (NCI-H23 lung) of 7.83 µM, a GI50 (DU-145 prostate) of 3.18 µM and a TGI (DU-145 prostate) of 9.77 µM. For the same compound, the GI50 (SK-MEL-28 melanoma) was 2.1 µM, the TGI (SK-MEL-28 melanoma) was 4.97 µM and the GI50 (SR leukemia) was 2.27 µM. It also gave a TGI (SR leukemia) greater than 100 µM, a GI50 (786-0 renal) of 1.64 µM and a TGI (786-0 renal) of 3.06 µM. It also gave a GI50 (UACC-257 melanoma) of 12.5 µM, a TGI (UACC-257 melanoma) of 25.5 µM and a GI50 (OVCAR-8 ovarian) of 2.29 µM. It also gave a TGI (OVCAR-8 ovarian) of 5.22 µM, a GI50 (HCC-2998 colon) of 1.76 µM and a TGI (HCC-2998 colon) of 3.36 µM. For the same compound, the GI50 (UO-31 renal) was 2.93 µM, the TGI (UO-31 renal) was 12.1 µM and the GI50 (M14 melanoma) was 2.37 µM. It also gave a TGI (M14 melanoma) of 5.88 µM, a GI50 (HOP-92 NSCLC) of 2.16 µM and a TGI (HOP-92 NSCLC) of 4.58 µM. It also gave a GI50 (SK-MEL-5 melanoma) of 4.35 µM, a TGI (SK-MEL-5 melanoma) of 17 µM and a GI50 (LOX IMVI melanoma) of 1.95 µM. The TGI (LOX IMVI melanoma) was 3.44 µM, the GI50 (RXF 393 renal) was 1.72 µM and the TGI (RXF 393 renal) was 3.32 µM.
